PMC7217817 (Clinical Pharmacokinetics, 2019)
Read-outs that look alike come from different tables or passages of the source.

What was measured:
P-gp [1] = settings: cited from earlier work; for Mean AUC∞ ratio of victim drug / Mean Cmax ratio of victim drug: Observed
CYP3A = settings: cited from earlier work
P-gp [2] = molecular target: T1, P-gp (Homo sapiens, UniProt P08183); settings: in vitro and clinical studies; cited from earlier work
[3] = single-dose elagolix 150 mg with ketoconazole 400 mg, Observed; cited from earlier work
[4] = Child–Pugh A patients compared with healthy volunteers; cited from earlier work
[5] = cited from earlier work
P-gp [6] = molecular target: T1, P-gp; assay: P-gp inhibition; format: in vitro ADME; settings: following administration of 150 or 200 mg of elagolix
[7] = Clinical multiple-dose pharmacokinetics of elagolix in healthy subjects; format: in vivo, human; settings: for AUCτ / CL/F / Cmax: healthy subjects
[8] = digoxin day 1 with elagolix 200 mg BID
[9] = digoxin day 10 with elagolix 200 mg BID
[10] = midazolam with elagolix 150 mg QD, Observed
[11] = 150 mg QD (N = 6), Day 21, Observed
[12] = 200 mg BID (N = 7), Day 21, Observed

T1 sequence (P08183 whole entry): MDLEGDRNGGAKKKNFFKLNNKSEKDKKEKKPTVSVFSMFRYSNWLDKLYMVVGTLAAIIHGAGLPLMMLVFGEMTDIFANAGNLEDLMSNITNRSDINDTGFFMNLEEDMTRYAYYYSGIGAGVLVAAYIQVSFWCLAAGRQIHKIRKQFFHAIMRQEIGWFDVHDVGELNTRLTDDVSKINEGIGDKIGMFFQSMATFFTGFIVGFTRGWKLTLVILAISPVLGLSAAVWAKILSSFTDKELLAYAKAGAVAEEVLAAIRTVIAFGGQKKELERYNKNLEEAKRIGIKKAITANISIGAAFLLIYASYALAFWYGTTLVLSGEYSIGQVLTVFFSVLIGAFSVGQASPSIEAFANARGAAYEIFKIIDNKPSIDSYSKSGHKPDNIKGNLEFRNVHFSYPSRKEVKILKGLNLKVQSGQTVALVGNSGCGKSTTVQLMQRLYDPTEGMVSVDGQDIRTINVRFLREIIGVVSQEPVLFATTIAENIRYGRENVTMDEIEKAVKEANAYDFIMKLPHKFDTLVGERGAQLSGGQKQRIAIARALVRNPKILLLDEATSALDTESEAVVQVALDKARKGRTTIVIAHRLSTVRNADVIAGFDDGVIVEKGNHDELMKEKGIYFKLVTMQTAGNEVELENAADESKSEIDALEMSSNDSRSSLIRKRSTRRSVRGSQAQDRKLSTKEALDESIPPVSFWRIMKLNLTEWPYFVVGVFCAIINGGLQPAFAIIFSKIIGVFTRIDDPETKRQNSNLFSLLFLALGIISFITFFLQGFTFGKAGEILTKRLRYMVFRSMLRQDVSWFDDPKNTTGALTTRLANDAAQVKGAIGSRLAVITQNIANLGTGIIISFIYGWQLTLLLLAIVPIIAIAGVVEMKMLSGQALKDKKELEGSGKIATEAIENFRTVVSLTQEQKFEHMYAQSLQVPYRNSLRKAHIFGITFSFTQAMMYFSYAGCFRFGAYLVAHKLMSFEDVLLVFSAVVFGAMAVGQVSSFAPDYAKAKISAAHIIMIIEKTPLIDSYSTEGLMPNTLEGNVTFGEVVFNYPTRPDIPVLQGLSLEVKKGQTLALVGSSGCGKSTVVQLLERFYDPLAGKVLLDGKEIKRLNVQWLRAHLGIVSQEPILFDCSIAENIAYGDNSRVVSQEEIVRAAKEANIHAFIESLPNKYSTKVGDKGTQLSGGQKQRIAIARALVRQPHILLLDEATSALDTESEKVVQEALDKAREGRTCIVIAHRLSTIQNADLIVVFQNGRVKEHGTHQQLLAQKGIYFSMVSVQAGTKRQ

## C[C@H]1O[C@@H](O[C@H]2[C@@H](O)C[C@H](O[C@H]3[C@@H](O)C[C@H](O[C@H]4CC[C@@]5(C)[C@H](CC[C@@H]6[C@@H]5C[C@@H](O)[C@]5(C)[C@@H](C7=CC(=O)OC7)CC[C@]65O)C4)O[C@@H]3C)O[C@@H]2C)C[C@H](O)[C@@H]1O [Digoxin, digoxin]
P-gp [1]; [8]
  Mean AUC∞ ratio of victim drug: 1.32
  Mean Cmax ratio of victim drug: 1.73
P-gp [1]; [9]
  Mean AUC∞ ratio of victim drug: 1.26
  Mean Cmax ratio of victim drug: 1.71
P-gp [1]; elagolix 200 mg BID, observed
  Increase in digoxin AUC: ~30%
  Increase in digoxin Cmax: approximately 70%

## Cc1ncc2n1-c1ccc(Cl)cc1C(c1ccccc1F)=NC2 [Midazolam, midazolam]
CYP3A; elagolix 150 mg QD, observed
  Decrease in midazolam AUC: 35%
CYP3A; [10]
  Mean AUC∞ ratio of victim drug: 0.65
  Mean Cmax ratio of victim drug: 0.81

## CO[C@H]1/C=C/O[C@@]2(C)Oc3c(C)c(O)c4c(O)c(c(/C=N/N5CCN(C)CC5)c(O)c4c3C2=O)NC(=O)/C(C)=C\C=C\[C@H](C)[C@H](O)[C@@H](C)[C@@H](O)[C@@H](C)[C@H](OC(C)=O)[C@@H]1C [Rifampin, rifampin]
P-gp [2]
  Induction of P-gp expression: four folds

## COc1cccc(-c2c(C)n(Cc3c(F)cccc3C(F)(F)F)c(=O)n(C[C@H](NCCCC(=O)O)c3ccccc3)c2=O)c1F [elagolix]
[3]
  Mean Cmax ratio of elagolix: 1.77
[4]
  Impact of hepatic impairment on elagolix exposures: no impact
[5]; clinical doses of 150 mg QD and 200 mg BID
  Apparent terminal elimination half-life (t½): 4 to 6 h
[5]; oral administration
  Time of maximum plasma concentration (Cmax) after dosing: 1 h
P-gp [6]
  Ki for P-gp below predicted intestinal elagolix concentration in the gastrointestinal lumen: approximately 500 fold
[7]; 150 mg QD (N = 6), Day 1, Observed
  AUCτ: 1331 ng●h/mL
[7]; [11]
  AUCτ: 1292 ng●h/mL
  CL/F: 123 L/h
[7]; 200 mg BID (N = 7), Day 1, Observed
  AUCτ: 1813 ng●h/mL
[7]; [12]
  AUCτ: 1725 ng●h/mL
  CL/F: 144 L/h
[7]; human, plasma, oral, 150 mg
  Tmax: 1.3 h
  half-life: 6.42 h
[7]; human, plasma, oral, 150 mg, 150 mg QD (N = 6), Day 1, Observed
  Cmax: 507 ng/mL
[7]; human, plasma, oral, 200 mg
  half-life: 4.29 h
[7]; human, plasma, oral, 200 mg, 200 mg BID (N = 7), Day 1, Observed
  Cmax: 712 ng/mL
